Literature values, collected in patent US20200020419A1, “METHODS OF ANALYZING CELLS” (Flagship Pioneering Innovations VI, LLC., priority 2018, published 2020).

Row | Structure (SMILES) | induction of transition of a mouse progenitor cell into a mouse neuron, known in the literature (mouse “progenitor” cell) | induction of transition of a MEF into a mouse progenitor cell, known in the literature (MEF)
1 | Cc1ccc(-c2nn(C(C)(C)C)c3ncnc(N)c23)cc1 [PP1] | known in the literature to be associated with induction of transition of a mouse “progenitor” cell into a mouse neuron | 
2 | CC(C)(C)n1nc(-c2ccc(Cl)cc2)c2c(N)ncnc21 [PP2] | known in the literature to be associated with induction of transition of a mouse “progenitor” cell into a mouse neuron | 
3 | CC(/C=C/C(=O)NO)=C\[C@@H](C)C(=O)c1ccc(N(C)C)cc1 [Trichostatin A] |  | known in the literature to be associated with induction of transition of a MEF into a mouse “progenitor” cell
